Nine compounds from the supplement of paper PMC11061612 can be followed below.

Test in all cases: combination Emax (second highest fraction inhibited in the dose matrix, 72 h); higher = more inhibition; extreme values may be limits of the assay
The test system of test [1] is COLO-205 (Colorectal Carcinoma). The essentials:
(§1)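 Bliss excess equals the observed combination effect minus the expected value EA + EB − EA·EB, where EA and EB are the effects of each agent alone. Combination Emax is the second-highest inhibition within the matrix. Inhibition was scaled from CellTiter-Glo 2.0 luminescence, with 0 set by vehicle wells and 1 by blank wells, after 72 hours of two-drug dosing of cells plated in 1536-well plates.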

The subject of test [2] is CaR-1 (Colorectal Carcinoma). The essentials: as §1
For test [3], the system named is EC-GI-10 (Esophageal Squamous Cell Carcinoma). The essentials:
as §1

For test [4], the system named is KELLY (Neuroblastoma). The essentials:
as §1

The test system of test [5] is KYSE-520 (Esophageal Squamous Cell Carcinoma). An outline of the steps: as §1
Test [6] concerns LB831-BLC (Bladder Carcinoma). The essentials:
as §1

The subject of test [7] is LU-135 (Small Cell Lung Carcinoma). An outline of the steps: as §1
For test [8], the system named is MFE-296 (Endometrial Carcinoma). An outline of the steps: as §1
Test [9] deals with NB10 (Neuroblastoma). The essentials:
as §1

Test [10] deals with NCI-H82 (Small Cell Lung Carcinoma). The essentials: as §1
For test [11], the system named is NOS-1 (Osteosarcoma). The essentials: as §1
Test [12] has as its system OVCA420 (Ovarian Carcinoma). An outline of the steps: as §1

Turning to `CC(=O)c1c(C)c2cnc(Nc3ccc(N4CCNCC4)cn3)nc2n(C2CCCC2)c1=O` [Palbociclib] + CC1(C)CCC(CN2CCN(c3ccc(C(=O)NS(=O)(=O)c4ccc(NCC5CCOCC5)c([N+](=O)[O-])c4)c(Oc4cnc5[nH]ccc5c4)c3)CC2)=C(c2ccc(Cl)cc2)C1 [Venetoclax] (first compound max 10 µM, 7x7, partner max 1 µM), the “combination Emax” value is 0.492 in test [1]; 0.0978 in [2]; 0.387 in [3]; 0.52 in test [4]; 0.114 in [5]; 0.108 in test [6]. Further, the “combination Emax” value in [7] turned out to be 0.445; in test [8], 0.203; in test [9] it was 0.293; in [10], 0.634; in test [11], 0.693; in test [12], 0.0625.
On to `CC(=O)c1c(C)c2cnc(Nc3ccc(N4CCNCC4)cn3)nc2n(C2CCCC2)c1=O` [Palbociclib] + Cc1c2c(nn1C)CSCc1cc(n(C)n1)CSc1cc(c3ccccc3c1)OCCCc1c(C(=O)O)n(C)c3c-2c(Cl)ccc13 [AZD5991] (first compound max 10 µM, 7x7, partner max 1 µM), for which the “combination Emax” value came out at 0.497 in test [1]; 0.229 in [2]; 0.543 in test [3]; 0.897 in test [4]; 0.462 in test [5]; 0.275 in [6]. In addition, the “combination Emax” value was determined as 0.388 in test [7]; 0.287 in test [8]; 0.369 in test [9]; 0.98 in [10]; 0.925 in test [11]; 0.265 in test [12].
For `CC(=O)c1c(C)c2cnc(Nc3ccc(N4CCNCC4)cn3)nc2n(C2CCCC2)c1=O` [Palbociclib] + Cn1cnc2c(F)c(Nc3ccc(Br)cc3Cl)c(C(=O)NOCCO)cc21 [Selumetinib] (first compound max 10 µM, 7x7, partner max 10 µM), the “combination Emax” value in test [1] is 0.788; in test [2], 0.307; in test [3] it was 0.493; in test [4], 0.626; in test [5] it was 0.457; in [6] it was 0.223. Besides, the “combination Emax” value in test [7] is 0.352; in [8], 0.105; in [9], 0.579; in test [10] it was 0.627; in test [11] it was 0.826; in [12], 0.51.
Turning to `COc1cccc(OCCCN)c1-c1cc(Nc2cnc(C#N)cn2)n[nH]1` [Prexasertib] + C=CCn1c(=O)c2cnc(Nc3ccc(N4CCN(C)CC4)cc3)nc2n1-c1cccc(C(C)(C)O)n1 [AZD1775] (first compound max 1 µM, partner max 1 µM), the “combination Emax” value was 0.908 in [1]; 0.797 in test [2]; 0.956 in test [3]; 1 in test [4]; 0.735 in test [5]; 0.836 in test [6]. Besides, the “combination Emax” value came out at 0.655 in [7]; 0.644 in test [8]; 0.953 in [9]; 0.996 in [10]; 0.432 in [11]; 0.726 in [12].
Consider `COc1cccc(OCCCN)c1-c1cc(Nc2cnc(C#N)cn2)n[nH]1` [Prexasertib] + CCc1c2c(nc3ccc(O)cc13)-c1cc3c(c(=O)n1C2)COC(=O)[C@]3(O)CC [SN-38] (first compound max 1 µM, 7x7, partner max 0.3 µM), for which the “combination Emax” value in test [1] was 0.938; in [2], 0.799; in [3], 1; in test [4], 1; in [5], 0.856; in [6], 0.921. In addition, the “combination Emax” value was 0.833 in [7]; 0.83 in test [8]; 0.865 in test [9]; 1 in [10]; 0.524 in test [11]; 0.75 in test [12].
On to `COc1cccc(OCCCN)c1-c1cc(Nc2cnc(C#N)cn2)n[nH]1` [Prexasertib] + CN(C)CCCOc1ccc(-c2ccc3ncc4c(c3c2)n(C2CCOCC2)c(=O)n4C)cn1 [AZD0156] (first compound max 1 µM, 7x7, partner max 1 µM), for which the “combination Emax” value is 0.673 in test [1]; 0.627 in [2]; 0.735 in [3]; 1 in [4]; 0.725 in test [5]; 0.413 in test [6]. Further, the “combination Emax” value in test [7] turned out to be 0.554; in test [8] it was 0.583; in test [9], 0.928; in test [10], 1; in test [11], 0.332; in test [12] it was 0.676.
For `COc1cccc(OCCCN)c1-c1cc(Nc2cnc(C#N)cn2)n[nH]1` [Prexasertib] + C[C@@H]1COCCN1C2=NC(=NC(=C2)C3(CC3)[S@](=N)(=O)C)C4=C5C=CNC5=NC=C4 [AZD6738] (first compound max 1 µM, 7x7, partner max 10 µM), the “combination Emax” value in test [1] stood at 0.565; in [2], 0.696; in [3], 0.713; in test [4] it was 1; in test [5] it was 0.728; in test [6], 0.363. Further, the “combination Emax” value in test [7] turned out to be 0.634; in test [8], 0.554; in test [9], 0.863; in test [10], 0.995; in [11], 0.381; in test [12], 0.692.
`COc1cccc(OCCCN)c1-c1cc(Nc2cnc(C#N)cn2)n[nH]1` [Prexasertib] + Cc1cc2ncnn2cc1Nc1ncc2c(n1)n(C1CCOCC1)c(=O)n2C [AZD7648] (first compound max 1 µM, 7x7, partner max 10 µM): the “combination Emax” value in test [1] was 0.675; in test [2], 0.67; in test [3] it was 0.713; in test [4] it was 1; in test [5] it was 0.728; in test [6], 0.314. The “combination Emax” value in [7] was 0.584; in test [8], 0.569; in [9], 0.918; in [10], 1; in test [11], 0.321; in test [12] it was 0.699.
Regarding `COc1cccc(OCCCN)c1-c1cc(Nc2cnc(C#N)cn2)n[nH]1` [Prexasertib] + O=C(c1cc(Cc2n[nH]c(=O)c3ccccc23)ccc1F)N1CCN(C(=O)C2CC2)CC1 [Olaparib] (first compound max 1 µM, 7x7, partner max 10 µM), the “combination Emax” value in [1] is 0.573; in test [2] it was 0.638; in test [3] it was 0.78; in test [4], 0.98; in test [5], 0.548; in test [6], 0.448. Further, the “combination Emax” value in test [7] worked out at 0.493; in [8], 0.525; in test [9] it was 0.797; in [10], 0.925; in test [11] it was 0.373; in [12], 0.733.
